According to PubChem BioAssay (NCI):
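Each compound was tested at five concentrations against cells in 96-well plates for 48 hours. TGI denotes the concentration required for complete inhibition of growth.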

Key:
Assay in all cases: DTP human tumour cell line panel, 48 h
SK-MEL-5 melanoma = test system: SK-MEL-5 melanoma
786-0 renal = test system: 786-0 renal
MDA-MB-231 breast = test system: MDA-MB-231 breast
SR leukemia = test system: SR leukemia
OVCAR-3 ovarian = test system: OVCAR-3 ovarian
RXF 393 renal = test system: RXF 393 renal
SNB-78 CNS = test system: SNB-78 CNS
HOP-18 NSCLC = test system: HOP-18 NSCLC
DMS 114 small cell lung = test system: DMS 114 small cell lung
LXFL 529 NSCLC = test system: LXFL 529 NSCLC
DLD-1 colon = test system: DLD-1 colon
KM20L2 colon = test system: KM20L2 colon
DMS 273 small cell lung = test system: DMS 273 small cell lung
M19-MEL melanoma = test system: M19-MEL melanoma
XF 498 CNS = test system: XF 498 CNS

Compound	TGI (SK-MEL-5 melanoma) [µM]	TGI (786-0 renal) [µM]	TGI (MDA-MB-231 breast) [µM]	TGI (SR leukemia) [µM]	TGI (OVCAR-3 ovarian) [µM]	TGI (RXF 393 renal) [µM]	TGI (SNB-78 CNS) [µM]	TGI (HOP-18 NSCLC) [µM]	TGI (DMS 114 small cell lung) [µM]	TGI (LXFL 529 NSCLC) [µM]	TGI (DLD-1 colon) [µM]	TGI (KM20L2 colon) [µM]	TGI (DMS 273 small cell lung) [µM]	TGI (M19-MEL melanoma) [µM]	TGI (XF 498 CNS) [µM]
Oc1c(O)c(Cc2ccccc2)c(Cc2ccccc2)c(Cc2ccccc2)c1Cc1ccccc1	> 10	> 10	> 10	> 10	> 10	> 10	–	–	–	–	–	–	–	–	–
CN(C)c1ccc(C2=C([O-])c3cc(-[n+]4ccccc4)ccc3C2=O)cc1	> 100	> 100	> 100	> 100	> 100	> 100	–	–	–	–	–	–	–	–	–
Cc1ccc([N+](=O)[O-])cc1S(=O)(=O)Nc1ccc(C2=NN(C(=O)c3ccccc3)C(c3ccccc3O)C2)cc1 (stereo unspecified)	34.7	27.9	37.7	> 100	56.8	31.9	–	–	–	–	–	–	–	–	–
c1cc2nnc1SCCSCCCSCCS2	> 100	> 100	> 100	> 100	> 100	> 100	–	–	–	–	–	–	–	–	–
CCOC(=O)COc1cc(-c2ccccc2)nc2cc(F)ccc12	> 100	> 100	> 100	> 100	> 100	> 100	–	–	–	–	–	–	–	–	–
O=C(/C=C/c1ccc(O)c(O)c1)O[C@H]1CCCC[C@@H]1OC(=O)/C=C/c1ccc(O)c(O)c1	21.4	46	> 100	> 100	26.7	27.6	–	–	–	–	–	–	–	–	–
CC1(C)OC2C(O1)[C@H]1OC(C(Cl)(Cl)Cl)=N[C@H]1C(I)[C@H]2N1C(=O)c2ccccc2C1=O (stereo partly specified)	> 100	> 100	–	65.4	–	88.6	> 100	> 100	> 100	> 100	> 100	> 100	> 100	> 100	–
Clc1cccc(/C=c2\nc(-c3ccccc3)n3c2nc2ccccc23)c1	> 100	> 100	> 100	> 100	> 100	> 100	–	–	–	–	–	–	–	–	–
CC(=S)NC=C(C(N)=O)C(N)=O	> 100	> 100	> 100	> 100	> 100	> 100	–	–	–	–	–	–	–	–	–
COc1ccc(C2S/C(=C\c3ccc([N+](=O)[O-])cc3)C(=O)N2NC(=O)Cc2ccccc2)cc1 (stereo unspecified)	> 100	> 100	–	> 100	–	> 100	–	> 100	> 100	> 100	> 100	–	> 100	> 100	–
CN(C)c1cccc2c(S(=O)(=O)NCCCNCCN)cccc12	35.7	> 100	> 100	39.1	> 100	75	–	–	–	–	–	–	–	–	–
CN(C(=O)C12C3(C(=O)O)C4C5(C(=O)O)C3C1(C(=O)O)C5C42C(=O)O)C(C)(C)C (stereo unspecified)	> 100	> 100	> 100	> 100	> 100	> 100	–	–	–	–	–	–	–	–	–
CC(C)C(=O)/C=C/c1ccc(Cl)cc1Cl	27.9	27.2	38.7	> 100	16.1	22.2	–	–	–	–	–	–	–	–	–
CCOC(=O)/C=C(\C(=O)OCC)n1cc(C)c(=O)n(Cc2cn(COCCOC(C)=O)nn2)c1=O	50.5	> 100	40.7	57.7	27.6	93.2	–	–	–	–	–	–	–	–	–
COc1ccc(N2C(=O)C3c4[nH]c5ccc(OC)cc5c4C4CCC(c5ccccc5)CC4C3C2=O)cc1 (stereo unspecified)	> 100	12.2	25	2.45	37	25	–	–	–	–	–	–	–	–	–
CN(C)CCSC(=Nc1ccccc1)n1cccc1	> 100	> 100	–	> 100	> 100	> 100	76.9	> 100	80.8	> 100	> 100	> 100	> 100	> 100	> 100
Clc1ccc(C2=Cc3nc2c(-c2ccccc2)c2ccc([nH]2)c(-c2ccccc2)c2nc(c(-c4ccccc4)c4ccc([nH]4)c3-c3ccccc3)C=C2)cc1	> 62.5	> 62.5	> 62.5	> 62.5	> 62.5	> 62.5	–	–	–	–	–	–	–	–	–
CN1C(CC(O)c2ccccc2)CCCC1CC(O)(c1ccccc1)c1ccccc1 (stereo unspecified)	31	29.1	48.8	56.6	31.3	28.9	–	–	–	–	–	–	–	–	–
COc1ccc(/C=N/NC(=O)CSc2nc(-c3ccccc3)c(-c3ccccc3)[nH]2)cc1OC	31.3	81	–	–	39.7	52.7	–	–	> 100	55.1	> 100	41.6	40.7	35.3	–
COc1cc(/C=C/C(=O)N[C@@H]2C(=O)N3[C@@H]2SC(C)(C)[C@@H]3C(=O)O)ccc1O	> 100	> 100	> 100	> 100	> 100	> 100	–	–	–	–	–	–	–	–	–
COc1ccccc1CC1(O)OC(=O)c2ccccc21 (stereo unspecified)	> 100	> 100	> 100	> 100	> 100	> 100	–	–	–	–	–	–	–	–	–
CCCCCCCCCCCCCC/C(C(=O)O)=C(\C)C(=O)O	> 100	> 100	> 100	> 100	> 100	> 100	–	–	–	–	–	–	–	–	–
COc1ccc(-n2nnc3c(C#N)c(C)c(-c4ccccc4)n3c2=O)cc1	17	8.24	> 79.1	> 100	44.6	> 21.4	–	–	–	–	–	–	–	–	–
COC(=O)[C@H]1C2CC[C@@H]3C45C[C@@H](c6ccoc6)O[C@@H]4O[C@@H](O2)C31CCC5C (stereo partly specified)	> 100	> 100	–	–	> 100	–	> 100	> 100	–	> 100	> 100	> 100	> 100	–	> 100
CN(C)c1ccc(/C=C2\C[C@H]3[C@@H]4CC=C5C[C@@H](O)CC[C@]5(C)[C@H]4CC[C@]3(C)[C@H]2O)cc1	34.3	42	34.5	> 100	59.8	68	–	–	–	–	–	–	–	–	–
